Laboratory results reported in paper PMC9295256 (Journal of medicinal chemistry, 2021).
Peptide text beside a SMILES is read from it.

Molecular target: recombinant rat Nln (Rattus norvegicus, UniProt P42676)
Experiment: Nln activation, continuous quenched fluorescence substrate
Assay type: biochemical
Conditions: not given

Chain of recombinant rat Nln (P42676 38-704): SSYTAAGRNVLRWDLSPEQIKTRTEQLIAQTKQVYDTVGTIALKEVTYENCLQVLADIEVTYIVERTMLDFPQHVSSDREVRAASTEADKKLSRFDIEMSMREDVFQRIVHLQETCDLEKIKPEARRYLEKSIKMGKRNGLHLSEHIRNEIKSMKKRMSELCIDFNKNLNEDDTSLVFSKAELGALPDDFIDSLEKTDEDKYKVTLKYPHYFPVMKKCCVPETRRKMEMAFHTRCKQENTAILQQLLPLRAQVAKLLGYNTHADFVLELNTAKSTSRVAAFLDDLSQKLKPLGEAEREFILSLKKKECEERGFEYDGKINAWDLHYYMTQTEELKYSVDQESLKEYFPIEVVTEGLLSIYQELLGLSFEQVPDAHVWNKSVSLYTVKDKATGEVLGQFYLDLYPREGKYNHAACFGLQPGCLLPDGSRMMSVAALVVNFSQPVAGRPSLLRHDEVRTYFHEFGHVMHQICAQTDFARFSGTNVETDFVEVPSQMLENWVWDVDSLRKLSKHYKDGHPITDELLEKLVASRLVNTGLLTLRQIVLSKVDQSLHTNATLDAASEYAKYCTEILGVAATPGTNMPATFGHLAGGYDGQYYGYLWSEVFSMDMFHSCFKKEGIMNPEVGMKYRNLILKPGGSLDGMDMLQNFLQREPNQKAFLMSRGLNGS

Nln activation, result in words | Amax, maximum % activation achieved (95% CI) | Molecule
ameliorates activity | – | (S)-tert-Butyl(1-((2-(1H-indol-3-yl)ethyl)amino)-3-(1H-imidazol-4-yl)-1-oxopropan-2-yl)carbamate [Compound 9b]
– | 310 (287.2 to 336.1) % | N[C@@H](Cc1c[nH]cn1)C(=O)NCc1ccc(OC(F)(F)F)cc1 [Compound 5p, (S)-2-Amino-3-(1H-imidazol-4-yl)-N-(4-(trifluoromethoxy)-benzyl)propanamide]
– | 293 (276.5–310.7) % | N[C@@H](Cc1c[nH]cn1)C(=O)NCc1ccc(F)cc1 [Compound 5n, (S)-2-Amino-N-(4-fluorobenzyl)-3-(1H-imidazol-4-yl)-propanamide]
– | 385.8 (363.8 to 410.5) % | COc1ccccc1CNC(=O)[C@@H](N)Cc1c[nH]cn1 [Compound 5d, (S)-2-Amino-3-(1H-3l4-imidazol-4-yl)-N-(2-methoxybenzyl)-propanamide]
– | 337.1 (312 to 364.9) % | N[C@H](Cc1c[nH]cn1)C(=O)NCc1ccc(OC(F)(F)F)cc1 [Compound 5q, (R)-2-Amino-3-(1H-imidazol-4-yl)-N-(4-(trifluoromethoxy)-benzyl)propanamide]
– | 269.7 (256.8 to 283.4) % | N[C@H](Cc1c[nH]cn1)C(=O)NCCc1ccc(-c2ccccc2)cc1 [Compound 4r, (R)-N-(2-([1,1′-biphenyl]-4-yl)ethyl)-2-amino-3-(1H-imidazol-4-yl)propanamide]
– | 320.5 (299.7 to 343.9) % | N[C@H](Cc1c[nH]cn1)C(=O)NCc1ccc(F)cc1 [Compound 5o, (R)-2-Amino-N-(4-fluorobenzyl)-3-(1H-imidazol-4-yl)-propanamide]
– | 287.5 (277.4 to 298.4) % | N[C@@H](Cc1c[nH]cn1)C(=O)NCc1ccc(SC(F)(F)F)cc1 [Compound 5r, (S)-2-Amino-3-(1H-imidazol-4-yl)-N-(4-((trifluoromethyl)thio)-benzyl)propanamide]
– | 428.8 (373 to 523.5) % | COc1ccc(CNC(=O)[C@@H](N)Cc2c[nH]cn2)cc1 [Compound 5b, (S)-2-Amino-3-(1H-3l4-imidazol-4-yl)-N-(4-methoxybenzyl)-propanamide]
complete amelioration of Nln activation | – | N[C@@H](Cc1ccc(O)cc1)C(=O)N[C@H](Cc1c[nH]cn1)C(=O)O [Compound 4a, H-Tyr-His-OH]
– | 477.1 (444 to 516) % | COc1cccc(CNC(=O)[C@H](N)Cc2cnc[nH]2)c1 [Compound 5g, (R)-2-Amino-3-(1H-3l4-imidazol-4-yl)-N-(3-methoxybenzyl)-propanamide]
– | 345.8 (317.5 to 378.3) % | N[C@H](Cc1c[nH]cn1)C(=O)NCc1ccccc1C(F)(F)F [Compound 5k, (R)-2-Amino-3-(1H-imidazol-4-yl)-N-(2-(trifluoromethyl)benzyl)-propanamide]
– | 251.5 (233.7 to 271.3) % | N[C@H](Cc1c[nH]cn1)C(=O)NCc1ccc(SC(F)(F)F)cc1 [Compound 5s, (R)-2-Amino-3-(1H-imidazol-4-yl)-N-(4-((trifluoromethyl)thio)-benzyl)propanamide]
– | 319.1 (296.3 to 344.3) % | N[C@H](Cc1c[nH]cn1)C(=O)NCc1ccc(C(F)(F)F)cc1 [Compound 5i, (R)-2-Amino-3-(1H-imidazol-4-yl)-N-(4-(trifluoromethyl)benzyl)-propanamide]
– | 282 (258.4 to 309.1) % | N[C@H](Cc1c[nH]cn1)C(=O)NCc1cccc(C(F)(F)F)c1 [Compound 5m, (R)-2-Amino-3-(1H-imidazol-4-yl)-N-(3-(trifluoromethyl)benzyl)-propanamide]
– | 703.5 (588.9 to 915.6) % | COc1ccc(CNC(=O)[C@H](N)Cc2cnc[nH]2)cc1 [Compound 5c, (R)-2-Amino-3-(1H-imidazol-4-yl)-N-(4-methoxybenzyl)-propanamide]
– | 324.9 (304 to 349) % | COc1ccccc1CNC(=O)[C@H](N)Cc1c[nH]cn1 [Compound 5e, (R)-2-Amino-3-(1H-3l4-imidazol-4-yl)-N-(2-methoxybenzyl)-propanamide]

Molecule | Nln activation, result in words | Amax, maximum % activation achieved (95% CI)
N[C@@H](Cc1cnc[nH]1)C(=O)N[C@@H](Cc1ccccc1)C(=O)O [Compound 3, His–Phe] (H-His-Phe-OH) | – | 442.3 (418.8 to 467.6) %
N[C@@H](Cc1cnc[nH]1)C(=O)N[C@@H](Cc1ccc(O)cc1)C(=O)O [Compound 1, His–Tyr] (H-His-Tyr-OH) | – | 465.2 (440.2 to 492.3) %
N[C@@H](Cc1c[nH]cn1)C(=O)N[C@@H](Cc1c[nH]cn1)C(=O)O [Compound 2, His–His] | – | 498.1 (481 to 516.5) %

Same assay, conditions: 100% = normal enzyme turnover; mean of n = 4, 95% CI in parentheses

Molecule | Amax, maximum % activation achieved (95% CI)
N[C@H](Cc1c[nH]cn1)C(=O)NCCc1c[nH]c2ccccc12 [Compound 9e, (R)-N-(2-(1H-Indol-3-yl)ethyl)-2-amino-3-(1H-imidazol-4-yl)-propanamide] | 132 (122.5 to 143.6) %
N[C@@H](Cc1c[nH]cn1)C(=O)NCCc1ccccc1 [Compound 4c, (S)-2-Amino-3-(1H-imidazol-4-yl)-N-phenethylpropanamide] | 337.2 (302 to 378.6) %
N[C@H](Cc1c[nH]cn1)C(=O)NCCc1ccccc1 [Compound 4d, (R)-2-Amino-3-(1H-imidazol-4-yl)-N-phenethylpropanamide] | 294.6 (278.0 to 313) %
(S)-tert-Butyl(1-((2-(1H-indol-3-yl)ethyl)amino)-3-(1H-imidazol-4-yl)-1-oxopropan-2-yl)carbamate [Compound 9b] | Inactive
N[C@H](Cc1c[nH]cn1)C(=O)NCc1ccc2ccccc2c1 [Compound 10b, (R)-2-Amino-3-(1H-imidazol-4-yl)-N-(naphthalen-2-ylmethyl)-propanamide] | 197.5 (184.9 to 214.8) %
N[C@H](Cc1c[nH]cn1)C(=O)Nc1ccccc1 [Compound 6b, (R)-2-Amino-3-(1H-imidazol-4-yl)-N-phenylpropanamide] | 440.3 (414.9 to 470.4) %
N[C@@H](Cc1c[nH]cn1)C(=O)NCc1ccc2ccccc2c1 [Compound 10a, (S)-2-Amino-3-(1H-imidazol-4-yl)-N-(naphthalen-2-ylmethyl)-propanamide] | 210.9 (191.7 to 231.9) %
N[C@@H](Cc1c[nH]cn1)C(=O)NCCCc1ccccc1 [Compound 7a, (S)-2-Amino-3-(1H-imidazol-4-yl)-N-(3-phenylpropyl)-propanamide] | 288.1 (273.6 to 303.8) %
N[C@H](Cc1c[nH]cn1)C(=O)NCCCc1ccccc1 [Compound 7b, (R)-2-Amino-3-(1H-imidazol-4-yl)-N-(3-phenylpropyl)-propanamide] | 281.8 (269.9 to 294.5) %
N[C@H](Cc1c[nH]cn1)C(=O)NCCCCc1ccccc1 [Compound 8b, (R)-2-Amino-3-(1H-imidazol-4-yl)-N-(4-phenylbutyl)-propanamide] | 233.8 (215.9 to 254.8) %
COc1ccc(CCNC(=O)[C@H](N)Cc2c[nH]cn2)cc1 [Compound 4f, (R)-2-Amino-3-(1H-imidazol-4-yl)-N-(4-methoxyphenethyl)-propanamide] | 378.3 (350.5 to 411.9) %

Same assay, conditions: 100% = normal enzyme turnover; mean of n = 4, 95% CI in parentheses; listed as D-9e

Molecule | Amax, maximum % activation achieved (95% CI) [%]
N[C@H](Cc1c[nH]cn1)C(=O)NCCc1c[nH]c2ccccc12 [Compound 9e, (R)-N-(2-(1H-Indol-3-yl)ethyl)-2-amino-3-(1H-imidazol-4-yl)-propanamide] | 132

Same assay, conditions: recombinant rat Nln, QFS 15 μM, 37 °C; mean of n = 4, 95% CI in parentheses

A50, half maximal activation concentration (95% CI) | Molecule
Inactive | (S)-tert-Butyl(1-((2-(1H-indol-3-yl)ethyl)amino)-3-(1H-imidazol-4-yl)-1-oxopropan-2-yl)carbamate [Compound 9b]
